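At the GI50, growth is halved. TGI marks complete inhibition of growth.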
Key:
Assay in all cases: growth of human tumour cells (NCI), 384-well format
UACC-62 melanoma = system: UACC-62 melanoma
NCI-H226 lung = system: NCI-H226 lung
K-562 leukemia = system: K-562 leukemia
T-47D breast = system: T-47D breast
MDA-MB-231 breast = system: MDA-MB-231 breast
NCI-H522 lung = system: NCI-H522 lung
HCT-15 colon = system: HCT-15 colon
RXF 393 renal = system: RXF 393 renal
ACHN renal = system: ACHN renal
NCI-H460 NSCLC = system: NCI-H460 NSCLC
CCRF-CEM leukemia = system: CCRF-CEM leukemia
MDA-MB-435 melanoma = system: MDA-MB-435 melanoma
MDA-MB-468 breast = system: MDA-MB-468 breast
SK-OV-3 ovarian = system: SK-OV-3 ovarian
HS 578T breast = system: HS 578T breast
MCF7 breast = system: MCF7 breast
OVCAR-8 ovarian = system: OVCAR-8 ovarian
SK-MEL-28 melanoma = system: SK-MEL-28 melanoma
PC-3 prostate = system: PC-3 prostate
NCI-H23 lung = system: NCI-H23 lung
SK-MEL-2 melanoma = system: SK-MEL-2 melanoma
HL-60(TB) leukemia = system: HL-60(TB) leukemia
HCT-116 colon = system: HCT-116 colon
SF-539 CNS = system: SF-539 CNS
SN12C renal = system: SN12C renal
DU-145 prostate = system: DU-145 prostate
A549 NSCLC = system: A549 NSCLC
BT-549 breast = system: BT-549 breast
IGROV1 ovarian = system: IGROV1 ovarian
OVCAR-3 ovarian = system: OVCAR-3 ovarian
SW-620 colon = system: SW-620 colon
COLO 205 colon = system: COLO 205 colon
LOX IMVI melanoma = system: LOX IMVI melanoma
MOLT-4 leukemia = system: MOLT-4 leukemia
MALME-3M melanoma = system: MALME-3M melanoma
EKVX NSCLC = system: EKVX NSCLC
HOP-62 NSCLC = system: HOP-62 NSCLC
HCC-2998 colon = system: HCC-2998 colon
SR leukemia = system: SR leukemia
CAKI-1 renal = system: CAKI-1 renal
SF-268 CNS = system: SF-268 CNS
SNB-19 CNS = system: SNB-19 CNS
NCI/ADR-RES ovarian = system: NCI/ADR-RES ovarian
SNB-75 CNS = system: SNB-75 CNS
UO-31 renal = system: UO-31 renal
UACC-257 melanoma = system: UACC-257 melanoma
TK-10 renal = system: TK-10 renal

CC(C)(O)C1CCC(Nc2ccc3ncc(-c4cccc(C(F)(F)F)c4)n3n2)CC1 (centres undefined)
GI50 (UACC-62 melanoma): 1500 nM
TGI (UACC-62 melanoma): 2840 nM
GI50 (NCI-H226 lung): 1000 nM
TGI (NCI-H226 lung): 2660 nM
GI50 (K-562 leukemia): 891 nM
TGI (K-562 leukemia): 2210 nM
GI50 (T-47D breast): 540 nM
TGI (T-47D breast): 2120 nM
GI50 (MDA-MB-231 breast): 1130 nM
TGI (MDA-MB-231 breast): 3.42 µM
GI50 (NCI-H522 lung): 1030 nM
TGI (NCI-H522 lung): 2560 nM
GI50 (HCT-15 colon): 1120 nM
TGI (HCT-15 colon): 2930 nM
GI50 (RXF 393 renal): 202 nM
TGI (RXF 393 renal): 616 nM
GI50 (ACHN renal): 1630 nM
TGI (ACHN renal): 5.01 µM
GI50 (NCI-H460 NSCLC): 1130 nM
TGI (NCI-H460 NSCLC): 2530 nM
GI50 (CCRF-CEM leukemia): 367 nM
TGI (CCRF-CEM leukemia): 1560 nM
GI50 (MDA-MB-435 melanoma): 1530 nM
TGI (MDA-MB-435 melanoma): 4.17 µM
GI50 (MDA-MB-468 breast): 1090 nM
TGI (MDA-MB-468 breast): 2640 nM
GI50 (SK-OV-3 ovarian): 1120 nM
TGI (SK-OV-3 ovarian): 2890 nM
GI50 (HS 578T breast): 364 nM
TGI (HS 578T breast): 1660 nM
GI50 (MCF7 breast): 1490 nM
TGI (MCF7 breast): 3.12 µM
GI50 (OVCAR-8 ovarian): 1770 nM
TGI (OVCAR-8 ovarian): 4.71 µM
GI50 (SK-MEL-28 melanoma): 1370 nM
TGI (SK-MEL-28 melanoma): 2690 nM
GI50 (PC-3 prostate): 1370 nM
TGI (PC-3 prostate): 3.32 µM
GI50 (NCI-H23 lung): 1460 nM
TGI (NCI-H23 lung): 3.3 µM
GI50 (SK-MEL-2 melanoma): 1320 nM
TGI (SK-MEL-2 melanoma): 2620 nM
GI50 (HL-60(TB) leukemia): 641 nM
TGI (HL-60(TB) leukemia): 1880 nM
GI50 (HCT-116 colon): 1700 nM
TGI (HCT-116 colon): 3.37 µM
GI50 (SF-539 CNS): 1020 nM
TGI (SF-539 CNS): 2330 nM
GI50 (SN12C renal): 1480 nM
TGI (SN12C renal): 5 µM
GI50 (DU-145 prostate): 2830 nM
TGI (DU-145 prostate): 12.3 µM
GI50 (A549 NSCLC): 2100 nM
TGI (A549 NSCLC): 7.64 µM
GI50 (BT-549 breast): 1450 nM
TGI (BT-549 breast): 3.88 µM
GI50 (IGROV1 ovarian): 1910 nM
TGI (IGROV1 ovarian): 5.23 µM
GI50 (OVCAR-3 ovarian): 1950 nM
TGI (OVCAR-3 ovarian): 6.19 µM
GI50 (SW-620 colon): 1810 nM
TGI (SW-620 colon): 4.15 µM
GI50 (COLO 205 colon): 2470 nM
TGI (COLO 205 colon): 8.7 µM
GI50 (LOX IMVI melanoma): 1400 nM
TGI (LOX IMVI melanoma): 2780 nM
GI50 (MOLT-4 leukemia): 559 nM
TGI (MOLT-4 leukemia): 1860 nM
GI50 (MALME-3M melanoma): 833 nM
TGI (MALME-3M melanoma): 2950 nM
GI50 (EKVX NSCLC): 1670 nM
TGI (EKVX NSCLC): 5.66 µM
GI50 (HOP-62 NSCLC): 1510 nM
TGI (HOP-62 NSCLC): 3.6 µM
GI50 (HCC-2998 colon): 1220 nM
TGI (HCC-2998 colon): 2750 nM
GI50 (SR leukemia): 588 nM
TGI (SR leukemia): 1690 nM
GI50 (CAKI-1 renal): 1490 nM
TGI (CAKI-1 renal): 3.39 µM
GI50 (SF-268 CNS): 1510 nM
TGI (SF-268 CNS): 4.44 µM
GI50 (SNB-19 CNS): 1900 nM
TGI (SNB-19 CNS): 5.5 µM
GI50 (NCI/ADR-RES ovarian): 1380 nM
TGI (NCI/ADR-RES ovarian): 3.3 µM
GI50 (SNB-75 CNS): 1450 nM
TGI (SNB-75 CNS): 4.14 µM
GI50 (UO-31 renal): 2120 nM
TGI (UO-31 renal): 12.4 µM
GI50 (UACC-257 melanoma): 1550 nM
TGI (UACC-257 melanoma): 3.08 µM
GI50 (TK-10 renal): 1390 nM
TGI (TK-10 renal): 6.84 µM
